# Results reported in patent US10000476B2, “Pyridone derivative, pharmaceutical containing the same and methods of use thereof” (KAKEN PHARMACEUTICAL CO., LTD., priority 2011, dated 2018).
# Molecular target: TACE (Homo sapiens (Human), UniProt P78536)
# Assay: TACE inhibition test (in vitro)
# Assay type: biochemical
# Conditions: fluorescent synthetic substrate, 37° C., 1.5 hours
# Experimental: The nucleotide sequence of TACE has been reported by Moss et al. (Moss, M. L. et al., Nature 1997, 385, 733-736). Accordingly, the cDNA of TACE was obtained according to the prescribed method from THP-1 cells or the like, and then incorporated the cDNA into an expression vector. Next, this vector was transformed into mammalian cells or insect cells, and TACE expression was obtained.
# The TACE inhibition test was carried out by measuring TACE activity in the presence and the absence of the test substance using the thus-obtained TACE as an enzyme, and a fluorescent synthetic substrate Nma(N-methylanthranilic acid)-Leu-Ala-Gln-Ala-Val-Arg-Ser-Ser-Lys(Dnp(dinitrophenyl))-D-Arg-NH2 (SEQ ID NO: 1) including the TACE-cleaved sequence of a membrane-bound TNF as a substrate. The TACE inhibition test method is shown below.
# Namely, 90 μL of an enzyme solution prepared with an assay buffer A (50 mM tris-hydrochloric acid buffer (pH 7.5) including 200 mM sodium chloride, 5 mM calcium chloride, 10 μM zinc sulfate, and 2 mg/mL bovine serum albumin) and 90 μL of a fluorescent synthetic substrate prepared with an assay buffer B (50 mM tris-hydrochloric acid buffer (pH 7.5) including 200 mM sodium chloride, 5 mM calcium chloride, 10 μM zinc sulfate, and 0.05% PLURONIC F-68) were mixed together, and reacted at 37° C. for 1.5 hours. Enzyme activity was then determined by measuring with a fluorescence intensity meter (Labsystems, Fluoroskan Ascent) at an excitation wavelength of 355 nm and a measurement wavelength of 460 nm.
# From the enzyme activity in the presence or the absence of the test substance, the inhibition rate was determined, and the 50% inhibitiory concentration (IC50) of the test substance was calculated.
# Sequence of TACE (P78536 215-824): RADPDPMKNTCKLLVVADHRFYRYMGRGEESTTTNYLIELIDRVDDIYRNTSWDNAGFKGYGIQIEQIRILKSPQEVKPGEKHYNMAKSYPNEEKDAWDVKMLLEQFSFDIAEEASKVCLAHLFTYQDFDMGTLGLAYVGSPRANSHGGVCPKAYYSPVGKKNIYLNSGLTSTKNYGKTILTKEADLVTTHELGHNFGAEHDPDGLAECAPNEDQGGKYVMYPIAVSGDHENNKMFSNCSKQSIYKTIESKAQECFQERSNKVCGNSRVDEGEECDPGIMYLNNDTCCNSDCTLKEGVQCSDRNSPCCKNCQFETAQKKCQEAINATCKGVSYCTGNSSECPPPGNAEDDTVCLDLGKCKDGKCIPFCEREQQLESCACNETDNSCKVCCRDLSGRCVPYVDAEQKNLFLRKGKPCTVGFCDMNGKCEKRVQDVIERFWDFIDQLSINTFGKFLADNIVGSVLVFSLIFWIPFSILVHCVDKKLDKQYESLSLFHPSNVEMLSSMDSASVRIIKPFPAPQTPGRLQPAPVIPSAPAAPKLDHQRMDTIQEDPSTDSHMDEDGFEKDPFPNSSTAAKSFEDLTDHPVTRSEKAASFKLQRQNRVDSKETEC
row,IC50,SMILES
1,< 100 nM,"COc1ccc(C2(Cn3cccc(C)c3=O)NC(=O)NC2=O)cc1 (stereo not drawn) [Compound I-2, 5-(4-methoxyphenyl)-5-[(3-methyl-2-oxopyridin-1(2H)-yl)methyl]imidazolidine-2,4-dione]"
2,< 100 nM,"Cc1cccn(CC2(c3ccc(C#N)cc3)NC(=O)NC2=O)c1=O (stereo not drawn) [Compound I-3, 4-{4-[(3-methyl-2-oxopyridin-1(2H)-yl)methyl]-2,5-dioxoimidazolidine-4-yl}benzonitrile]"
3,< 100 nM,"COc1cccc(C2(Cn3cccc(C)c3=O)NC(=O)NC2=O)c1 (stereo not drawn) [Compound I-4, 5-(3-methoxyphenyl)-5-[(3-methyl-2-oxopyridin-1(2H)-yl)methyl]imidazolidine-2,4-dione]"
4,< 100 nM,"Cc1cccn(CC2(c3ccsc3)NC(=O)NC2=O)c1=O (stereo not drawn) [Compound I-5, 5-[(3-methyl-2-oxopyridin-1(2H)-yl)methyl]-5-(thiophen-3-yl)imidazolidine-2,4-dione]"
5,< 100 nM,"Cc1cccn(CC2(c3cc4ccccc4o3)NC(=O)NC2=O)c1=O (stereo not drawn) [Compound I-6, 5-(benzofuran-2-yl)-5-[(3-methyl-2-oxopyridin-1(2H)-yl)methyl]imidazolidine-2,4-dione]"
6,< 100 nM,"Cc1cccn(CC2(c3ccccn3)NC(=O)NC2=O)c1=O (stereo not drawn) [Compound I-7, 5-[(3-methyl-2-oxopyridin-1(2H)-yl)methyl]-5-(pyridin-2-yl)imidazolidine-2,4-dione]"
7,< 100 nM,"Cc1cccn(CC2(c3cccnc3)NC(=O)NC2=O)c1=O (stereo not drawn) [Compound I-8, 5-[(3-methyl-2-oxopyridin-1(2H)-yl)methyl]-5-(pyridin-3-yl)imidazolidine-2,4-dione]"
8,< 100 nM,"Cc1cccn(CC2(c3ccc(Br)cc3)NC(=O)NC2=O)c1=O (stereo not drawn) [Compound I-11, 5-(4-bromophenyl)-5-[(3-methyl-2-oxopyridin-1(2H)-yl)methyl]imidazolidine-2,4-dione]"
9,< 100 nM,"COc1cc(C2(Cn3cccc(C)c3=O)NC(=O)NC2=O)ccc1F (stereo not drawn) [Compound I-12, 5-(4-fluoro-3-methoxyphenyl)-5-[(3-methyl-2-oxopyridin-1(2H)-yl)methyl]imidazolidine-2,4-dione]"
10,< 100 nM,"COCOc1ccc(C2(Cn3cccc(C)c3=O)NC(=O)NC2=O)cc1 (stereo not drawn) [Compound I-13, 5-[4-(methoxymethoxy)phenyl]-5-[(3-methyl-2-oxopyridin-1(2H)-yl)methyl]imidazolidine-2,4-dione]"
11,< 100 nM,"COc1ccc(C2(Cn3cccc(C)c3=O)NC(=O)NC2=O)cc1F (stereo not drawn) [Compound I-14, 5-(3-fluoro-4-methoxyphenyl)-5-[(3-methyl-2-oxopyridin-1(2H)-yl)methyl]imidazolidine-2,4-dione]"
12,< 100 nM,"Cc1cccn(CC2(c3ccc(F)cc3)NC(=O)NC2=O)c1=O (stereo not drawn) [Compound I-15, 5-(4-fluorophenyl)-5-[(3-methyl-2-oxopyridin-1(2H)-yl)methyl]imidazolidine-2,4-dione]"
13,< 100 nM,"COc1ccc(C2(Cn3cccc(C)c3=O)NC(=O)NC2=O)cc1OC (stereo not drawn) [Compound I-16, 5-(3,4-dimethoxyphenyl)-5-[(3-methyl-2-oxopyridin-1(2H)-yl)methyl]imidazolidine-2,4-dione]"
14,< 100 nM,"Cc1cccn(CC2(c3ccc(C(C)(C)C)cc3)NC(=O)NC2=O)c1=O (stereo not drawn) [Compound I-17, 5-[4-(tert-butyl)phenyl]-5-[(3-methyl-2-oxopyridin-1(2H)-yl)methyl]imidazolidine-2,4-dione]"
15,< 100 nM,"COc1ccc(C2(Cn3cccc(C)c3=O)NC(=O)NC2=O)c(OC)c1 (stereo not drawn) [Compound I-18, 5-(2,4-dimethoxyphenyl)-5-[(3-methyl-2-oxopyridin-1(2H)-yl)methyl]imidazolidine-2,4-dione]"
16,< 100 nM,Cc1cccn(CC2(c3cccc(C(F)(F)F)c3)NC(=O)NC2=O)c1=O (stereo not drawn) [Compound I-19]
17,< 100 nM,"COc1ccc(OC)c(C2(Cn3cccc(C)c3=O)NC(=O)NC2=O)c1 (stereo not drawn) [Compound I-20, 5-(2,5-dimethoxyphenyl)-5-[(3-methyl-2-oxopyridin-1(2H)-yl)methyl]imidazolidine-2,4-dione]"
18,< 100 nM,"COc1cc(F)ccc1C1(Cn2cccc(C)c2=O)NC(=O)NC1=O (stereo not drawn) [Compound I-21, 5-(4-fluoro-2-methoxyphenyl)-5-[(3-methyl-2-oxopyridin-1(2H)-yl)methyl]imidazolidine-2,4-dione]"

row,IC50,SMILES
1,< 100 nM,"Cc1cccn(CC2(c3ccc4occc4c3)NC(=O)NC2=O)c1=O (stereo not drawn) [Compound I-22, 5-(benzofuran-5-yl)-5-[(3-methyl-2-oxopyridin-1(2H)-yl)methyl]imidazolidine-2,4-dione]"
2,< 100 nM,"Cc1cccn(CC2(c3ccc4sccc4c3)NC(=O)NC2=O)c1=O (stereo not drawn) [Compound I-23, 5-(benzo[b]thiophen-5-yl)-5-[(3-methyl-2-oxopyridin-1(2H)-yl)methyl]imidazolidine-2,4-dione]"
3,100 to 1000 nM,"COc1ccc(OC(F)(F)F)cc1C1(Cn2cccc(C)c2=O)NC(=O)NC1=O (stereo not drawn) [Compound I-24, 5-[2-methoxy-5-(trifluoromethoxy)phenyl]-5-[(3-methyl-2-oxopyridin-1(2H)-yl)methyl]imidazolidine-2,4-dione]"
4,< 100 nM,"Cc1cccn(CC2(c3ccc(S(C)(=O)=O)cc3)NC(=O)NC2=O)c1=O (stereo not drawn) [Compound I-25, 5-[(3-methyl-2-oxopyridin-1(2H)-yl)methyl]-5-[4-(methylsulfonyl)phenyl]imidazolidine-2,4-dione]"
5,< 100 nM,"Cc1cccn(CC2(c3ccc4c(c3)CCCO4)NC(=O)NC2=O)c1=O (stereo not drawn) [Compound I-26, 5-(chroman-6-yl)-5-[(3-methyl-2-oxopyridin-1(2H)-yl)methyl]imidazolidine-2,4-dione]"
6,< 100 nM,"Cc1cccn(CC2(c3cccc(F)c3)NC(=O)NC2=O)c1=O (stereo not drawn) [Compound I-28, 5-(3-fluorophenyl)-5-[(3-methyl-2-oxopyridin-1(2H)-yl)methyl]imidazolidine-2,4-dione]"
7,< 100 nM,"Cc1cccn(CC2(c3cc(F)c(F)cc3F)NC(=O)NC2=O)c1=O (stereo not drawn) [Compound I-29, 5-[(3-methyl-2-oxopyridin-1(2H)-yl)methyl]-5-(2,4,5-trifluorophenyl)imidazolidine-2,4-dione]"
8,< 100 nM,"Cc1cc(C2(Cn3cccc(C)c3=O)NC(=O)NC2=O)ccc1F (stereo not drawn) [Compound I-30, 5-(4-fluoro-3-methylphenyl)-5-[(3-methyl-2-oxopyridin-1(2H)-yl)methyl]imidazolidine-2,4-dione]"
9,< 100 nM,"Cc1cccn(CC2(c3ccc(-c4ccncc4)cc3)NC(=O)NC2=O)c1=O (stereo not drawn) [Compound I-31, 5-[(3-methyl-2-oxopyridin-1(2H)-yl)methyl]-5-[4-(pyridin-4-yl)phenyl]imidazolidine-2,4-dione]"
10,< 100 nM,"Cc1cccn(CC2(c3ccc(-c4cccnc4)cc3)NC(=O)NC2=O)c1=O (stereo not drawn) [Compound I-32, 5-[(3-methyl-2-oxopyridin-1(2H)-yl)methyl]-5-[4-(pyridin-3-yl)phenyl]imidazolidine-2,4-dione]"
11,< 100 nM,"Cc1cccn(CC2(c3ccc(C#CC(C)(C)C)cc3)NC(=O)NC2=O)c1=O (stereo not drawn) [Compound I-33, 5-[4-(3,3-dimethylbut-1-yn-1-yl)phenyl]-5-[(3-methyl-2-oxopyridin-1(2H)-yl)methyl]imidazolidine-2,4-dione]"
12,< 100 nM,"Cc1ccc(Oc2ccc(C3(Cn4cccc(C)c4=O)NC(=O)NC3=O)cc2)cc1 (stereo not drawn) [Compound I-34, 5-[(3-methyl-2-oxopyridin-1(2H)-yl)methyl]-5-[4-(p-tolyloxy)phenyl]imidazolidine-2,4-dione]"
13,< 100 nM,"Cc1ccccc1Oc1ccc(C2(Cn3cccc(C)c3=O)NC(=O)NC2=O)cc1 (stereo not drawn) [Compound I-35, 5-[(3-methyl-2-oxopyridin-1(2H)-yl)methyl]-5-[4-(o-tolyloxy)phenyl]imidazolidine-2,4-dione]"
14,< 100 nM,"Cc1cc(C2(Cn3cccc(C)c3=O)NC(=O)NC2=O)ccc1OC1CCCC1 (stereo not drawn) [Compound I-39, 5-[4-(cyclopentyloxy)-3-methylphenyl]-5-[(3-methyl-2-oxopyridin-1(2H)-yl)methyl]imidazolidine-2,4-dione]"
15,< 100 nM,"Cc1cccn(CC2(c3ccc(-c4nn[nH]n4)cc3)NC(=O)NC2=O)c1=O (stereo not drawn) [Compound I-42, 5-[4-(2H-tetrazol-5-yl)phenyl]-5-[(3-methyl-2-oxopyridin-1(2H)-yl)methyl]imidazolidine-2,4-dione]"
16,< 100 nM,"C=Cc1ccc(C2(Cn3cccc(C)c3=O)NC(=O)NC2=O)cc1 (stereo not drawn) [Compound I-43, 5-[(3-methyl-2-oxopyridin-1(2H)-yl)methyl]-5-(4-vinylphenyl)imidazolidine-2,4-dione]"
17,< 100 nM,"Cc1cccn(CC2(c3cc(F)c(F)c(F)c3)NC(=O)NC2=O)c1=O (stereo not drawn) [Compound I-44, 5-[(3-methyl-2-oxopyridin-1(2H)-yl)methyl]-5-(3,4,5-trifluorophenyl)imidazolidine-2,4-dione]"
18,< 100 nM,"CCCc1ccc(C2(Cn3cccc(C)c3=O)NC(=O)NC2=O)cc1 (stereo not drawn) [Compound I-45, 5-[(3-methyl-2-oxopyridin-1(2H)-yl)methyl]-5-(4-propylphenyl)imidazolidine-2,4-dione]"
